Measured values as given in patent US20250339408A1, “TREATMENT AND PREVENTION OF BASAL CELL CARCINOMA WITH TOPICAL COMPOSITION COMPRISING PATIDEGIB” (Sol-Gel Technologies Ltd., priority 2023, published 2025).

System: basal cell carcinoma (BCC) lesions on the face
Assay: Randomized, double-blind, vehicle-controlled study of Patidegib Topical Gel, 2% in Gorlin syndrome participants with PTCH1 mutation (Example 2)
Type: in vivo, human
Description: The term “nSEB” refers to BCCs with a longest diameter of ≥5 mm that: • a. were not surgically eligible BCCs (SEBs) at baseline; • b. have grown by ≥2 mm in longest diameter from baseline; and • c. have been verified histologically.
The term “SEB” refers to surgically eligible BCCs with a longest diameter of ≥5 mm.
The term “resolved SEB lesions” refers to BCCs lesions which no longer requires a surgical removal treatment. In another embodiment the term “resolved SEB lesions” refers to BCCs lesions with a diameter <5 mm or the BCC lesions are completely disappeared.
A randomized, double-blind, stratified, vehicle-controlled study was done, measuring the efficacy and safety of Patidegib Topical Gel, 2%, applied topically twice daily to the face of adult participants with Gorlin syndrome. The Participants were required to apply the investigational product for 12 months. The primary endpoint is a comparison between the two treatment—Patidegib Topical Gel, 2%, versus Vehicle, resulted the of the number of new BCCs that develop over the 12 month period.
Participants will be randomized to receive Patidegib Topical Gel, 2%. The Patidegib Topical Gel, 2% will be dispensed to participants at each study visit and applied topically twice daily to the face.
Participants will be randomized to receive Vehicle. The Patidegib Topical Gel, Vehicle will be dispensed to participants at each study visit and applied topically twice daily to the face.
• 1. The participant must be age at least 18 years of age at the Screening Visit. • 2. The participant must provide written informed consent prior to any study procedures. • 3. The participant must meet diagnostic criteria for the basal cell nevus (Gorlin) syndrome including PTCH1 gene mutation, or at least 6 histologically confirmed facial BCC lesions at Baseline and PTCH1 gene mutation. • 4. The participant is willing to have blood collected to measure circulating drug levels. • 5. The participant is willing to abstain from application of a non-study topical medication (prescription or over the counter) to facial skin for the duration of the trial except as prescribed by the Investigator. Moisturizers and emollients are allowed. Participant will be encouraged to use their preferred sunscreen with a sun protector factor (SPF) of at least 30 daily on all exposed skin sites. • 6. If the participant is a woman of childbearing potential (WOCBP), they must be willing to use complete abstinence from sexual intercourse and/or they and their partner must be willing to use at least 2 highly-effective forms of birth control starting prior to Baseline, through the duration of the study, and for 12 months after last application of IP. • 7. If the participant is a male with a female sex partner who is a WOCBP, the participant must be willing to use condoms, even after a vasectomy, starting prior to Baseline, through the duration of the study, and for at least 8 months after the last application of IP. • 8. The participant is willing for all facial BCCs to be evaluated and treatment recommendations made only by the Investigator. • 9. The participant is willing to forego treatment of facial BCCs with anything other than the study IP except when the Investigator believes that delay of treatment of a facial BCC potentially might compromise the health of the subject. During the trial the only allowed form of treatment is surgical. Non-facial BCCs may be removed at the discretion of the Investigator or Primary Skin Care Physician (PSCP).
• 1. The subject has previously participated in a clinical trial evaluating patidegib topical gel. • 2. The participant has used topical treatment to the face or systemic therapies that might interfere with the evaluation of the study IP. Among these are use of the following: • a. 5-fluorouracil, imiquimod, diclofenac, or Ingenol mebutate (except as topical treatment to discrete non-facial BCCs) systemically or topically to the skin within the 2 months prior to the Screening Visit. • b. […]

[1] = PTCH1 mutation, baseline total facial BCC lesions at least 6, gel 2% twice daily to face, month 3
[2] = PTCH1 mutation, baseline total facial BCC lesions at least 6, gel 2% twice daily to face, month 6
[3] = PTCH1 mutation, baseline total facial BCC lesions at least 6, gel 2% twice daily to face, month 9
[4] = PTCH1 mutation, baseline total facial BCC lesions at least 6, gel 2% twice daily to face, month 12
[5] = PTCH1 mutation, baseline total facial BCC lesions at least 8, gel 2% twice daily to face, month 3
[6] = PTCH1 mutation, baseline total facial BCC lesions at least 8, gel 2% twice daily to face, month 6
[7] = PTCH1 mutation, baseline total facial BCC lesions at least 8, gel 2% twice daily to face, month 9
[8] = PTCH1 mutation, baseline total facial BCC lesions at least 8, gel 2% twice daily to face, month 12
[9] = PTCH1 mutation, baseline total facial BCC lesions at least 10, gel 2% twice daily to face, month 3
[10] = PTCH1 mutation, baseline total facial BCC lesions at least 10, gel 2% twice daily to face, month 6
[11] = PTCH1 mutation, baseline total facial BCC lesions at least 10, gel 2% twice daily to face, month 9
[12] = PTCH1 mutation, baseline total facial BCC lesions at least 10, gel 2% twice daily to face, month 12
[13] = PTCH1 mutation, gel 2% twice daily to face
[14] = PTCH1 mutation, gel 2% twice daily to face, month 3
[15] = PTCH1 mutation, gel 2% twice daily to face, month 6
[16] = PTCH1 mutation, gel 2% twice daily to face, month 9
[17] = PTCH1 mutation, gel 2% twice daily to face, month 12
[18] = per subject, PTCH1 mutation, by month 12
[19] = per subject, more than 6 BCC lesions at baseline, Baseline to month 12

For `CC1=C2C[C@H]3[C@@H](CC[C@@H]4C[C@H](NS(C)(=O)=O)CC[C@@]43C)[C@@H]2CC[C@@]2(C1)O[C@@H]1C[C@H](C)CN[C@H]1[C@H]2C` [Patidegib], the “Overall efficacy in treating or preventing BCC lesions (in words)” value (Gorlin syndrome with genetic mutation PTCH1) was “effective in treating or preventing BCC lesions”, the “Number of qualifying nSEBs, observed, Mean” value (from here on “Number of qualifying nSEBs”) (PTCH1 mutation, baseline total BCC facial lesions at least 6, gel 2% twice daily to face, month 3) was 0.28 and the “Number of qualifying nSEBs” value (PTCH1 mutation, baseline total BCC facial lesions at least 6, gel 2% twice daily to face, month 6) was 0.42. The “Number of qualifying nSEBs” value (PTCH1 mutation, baseline total BCC facial lesions at least 6, gel 2% twice daily to face, month 9) was 0.83, the “Number of qualifying nSEBs” value (PTCH1 mutation, baseline total BCC facial lesions at least 6, gel 2% twice daily to face, month 12) was 0.47 and the “Number of new BCCs excluding no longer suspicious BCCs, observed, Mean” value [1] was 0.80. For the same molecule, the “Proportion of SEBs clinically resolved, observed, Mean” value (from here on “Proportion”) [1] was 6.61, the “Number of new BCCs excluding no longer suspicious BCCs, observed, Mean” value [2] was 1.68 and the “Proportion” value [2] was 3.11. The “Number of new BCCs excluding no longer suspicious BCCs, observed, Mean” value [3] was 2.49, the “Proportion” value [3] was 10.22 and the “Number of new BCCs excluding no longer suspicious BCCs, observed, Mean” value [4] was 2.78. The “Proportion” value [4] was 18.79, the “Number of new BCCs excluding no longer suspicious BCCs, observed, Mean” value [5] was 0.94 and the “Number of qualifying nSEBs” value [5] was 0.31. The “Proportion” value [5] was 5.98, the “Number of new BCCs excluding no longer suspicious BCCs, observed, Mean” value [6] was 1.96 and the “Number of qualifying nSEBs” value [6] was 0.52. For the same molecule, the “Proportion” value [6] was 1.30, the “Number of new BCCs excluding no longer suspicious BCCs, observed, Mean” value [7] was 2.71 and the “Number of qualifying nSEBs” value [7] was 0.96. The “Proportion” value [7] was 8.73, the “Number of new BCCs excluding no longer suspicious BCCs, observed, Mean” value [8] was 2.96 and the “Number of qualifying nSEBs” value [8] was 0.52. The “Proportion” value [8] was 12.84, the “Number of new BCCs excluding no longer suspicious BCCs, observed, Mean” value [9] was 1.00 and the “Number of qualifying nSEBs” value [9] was 0.41. For the same molecule, the “Proportion” value [9] was 8.50, the “Number of new BCCs excluding no longer suspicious BCCs, observed, Mean” value [10] was 1.93 and the “Number of qualifying nSEBs” value [10] was 0.64. The “Proportion” value [10] was 2.05, the “Number of new BCCs excluding no longer suspicious BCCs, observed, Mean” value [11] was 2.56 and the “Number of qualifying nSEBs” value [11] was 1.00. For the same molecule, the “Proportion” value [11] was 13.39, the “Number of new BCCs excluding no longer suspicious BCCs, observed, Mean” value [12] was 2.88 and the “Number of qualifying nSEBs” value [12] was 0.56. The “Proportion” value [12] was 16.89, the “LS Mean for new BCCs per year (Std Err)” value [13] was 2.83 and the “Predicted new BCCs per year using observed covariates (95% CI)” value [13] was 3.09. The “Number of new BCCs excluding no longer suspicious BCCs, observed, Mean” value [14] was 0.69, the “Number of qualifying nSEBs” value [14] was 0.21 and the “Proportion” value [14] was 5.42. The “Number of new BCCs excluding no longer suspicious BCCs, observed, Mean” value [15] was 1.59, the “Number of qualifying nSEBs” value [15] was 0.38 and the “Proportion” value [15] was 2.76. The “Number of new BCCs excluding no longer suspicious BCCs, observed, Mean” value [16] was 2.17, the “Number of qualifying nSEBs” value [16] was 0.70 and the “Proportion” value [16] was 8.11. The “Number of new BCCs excluding no longer suspicious BCCs, observed, Mean” value [17] was 2.61, the “Number of qualifying nSEBs” value [17] was 0.50 and the “Proportion” value [17] was 14.68. For the same molecule, the “Total new BCCs” value (all subjects of the arm, PTCH1 mutation, by month 12) was 114, the “Total BCCs surgeries from Baseline to month 12” value (all subjects of the arm, more than 6 BCC lesions at baseline) was 14 and the “Rate-ratio: Patidegib/Vehicle (Std Err)” value (new BCCs per year, PTCH1 mutation) was 0.91. For the same molecule, the “Number of new BCCs by Month 12 - Max” value [18] was 8, the “Number of new BCCs by Month 12 - Median” value [18] was 2.0 and the “Number of new BCCs by Month 12 - Min” value [18] was 0. The “Number of new BCCs by Month 12 - Q1” value [18] was 1.0, the “Number of new BCCs by Month 12 - Q3” value [18] was 5.0 and the “Number of new BCCs by Month 12 - Mean (SD)” value (per subject, PTCH1 mutation, gel 2% twice daily to face, by month 12) was 3.08. The “Number of BCCs surgeries - Max” value [19] was 5, the “Number of BCCs surgeries - Median” value [19] was 0.0 and the “Number of BCCs surgeries - Min” value [19] was 0. The “Number of BCCs surgeries - Q1” value [19] was 0, the “Number of BCCs surgeries - Q3” value [19] was 1 and the “Number of BCCs surgeries - Mean (SD)” value (per subject, more than 6 BCC lesions at baseline, Baseline to month 12, gel 2% twice daily to face) was 0.6 (1.47).
